Test results from patent US20200181192A1, “DISULFIDE BIOCONJUGATION” (The Regents of the University of California, priority 2017, published 2020).

Key:
[1] = in diethyl ether; diphenyl disulfide, benzyl amine, diphenyl acetic acid, 1-butanethiol; GC-MS
Source text: To determine the stability and selectivity of bicyclobutane molecules endo-3, exo-3 were solubilized in diethyl ether and tested with a variety of functional groups (diphenyl disulfide, benzyl amine, diphenyl acetic acid, and 1-butanethiol) then analyzed on a GC-MS to confirm the continued presence of starting materials.

[2] = Solubility in polar solvents; type: physicochemical; conditions: for solubility in methanol:water mixture: 9:1 methanol:water; for solubility in polar solvents: acetonitrile, methanol
Experimental: Previous bicyclobutane molecules (1a, 1b) were determined by Baran and coworkers to be bench stable so no further studies were conducted on their stability.

[3] = in solvent left on the bench, over 2 days
[4] = determined by Baran and coworkers; no further studies conducted; cited from earlier work

Row | solubility in polar solvents [2] | Structure (SMILES) | reaction with functional groups (continued presence of starting materials) [1] | solubility in methanol:water mixture [2] | stability in polar solvents by 1H-NMR [3] | bench stability [4]
1 |  | OC[C@@H]1[C@H]2C[C@@H]12 [exo-3, Exo-Bicyclo[1.1.-]butane-2-methanol] | apparent only in the case with diphenyl acetic acid and 1-butane thiol | soluble | no change | 
2 | not be completely soluble | Cc1ccc(S(=O)(=O)C23CC2C3)cc1 (stereo not shown) [1b, 1-tosylbicyclo[1.1.0]butane] |  |  |  | bench stable
3 |  | OC[C@H]1[C@H]2C[C@@H]12 [endo-3, Endo-Bicyclo[1.1.-]butane-2-methanol] | apparent only in the case with diphenyl acetic acid and 1-butane thiol | soluble | no change | 
4 | not be completely soluble | O=S(=O)(c1ccccc1)C12CC1C2 (stereo not shown) [1a, 1-(phenylsulfonyl)bicyclo[1.1.0]butane] |  |  |  | bench stable
